Literature values, collected in patent US8926994B2, “Mesoporous silicon particles for the presentation of tumor antigens and adjuvant for anti-cancer immunity” (The Methodist Hospital Research Institute, priority 2011, dated 2015).

Tested on: endothelial cells

N.N.[Cl][Pt][Cl] [cis-platin]
relative cell cycle composition / mitosis (propidium iodide DNA content) (12 and 24 hr, 10:1 microparticles:cell): inhibited cellular mitosis | apoptotic volume (cell death) (flow cytometry): major accumulation of cell fragments
